From patent US10688189B1, “Modulated guanidine-containing polymers or nanoparticles” (THE FLORIDA INTERNATIONAL BOARD OF TRUSTEES, priority 2017, dated 2020)

What was measured:
CFTR = target: T1, CFTR (Homo sapiens, UniProt P13569); experiment: Ussing chamber apical CFTR activity in NHBE cells; assay type: cell-based; conditions: FIG. 12
T1 construct: CFTR is located at the apical side (mucosal) of the airway epithelium; endogenous in cells; host or cells: primary NHBE cells, re-differentiated 21 days at the air-liquid interface
T1 sequence (P13569 whole entry): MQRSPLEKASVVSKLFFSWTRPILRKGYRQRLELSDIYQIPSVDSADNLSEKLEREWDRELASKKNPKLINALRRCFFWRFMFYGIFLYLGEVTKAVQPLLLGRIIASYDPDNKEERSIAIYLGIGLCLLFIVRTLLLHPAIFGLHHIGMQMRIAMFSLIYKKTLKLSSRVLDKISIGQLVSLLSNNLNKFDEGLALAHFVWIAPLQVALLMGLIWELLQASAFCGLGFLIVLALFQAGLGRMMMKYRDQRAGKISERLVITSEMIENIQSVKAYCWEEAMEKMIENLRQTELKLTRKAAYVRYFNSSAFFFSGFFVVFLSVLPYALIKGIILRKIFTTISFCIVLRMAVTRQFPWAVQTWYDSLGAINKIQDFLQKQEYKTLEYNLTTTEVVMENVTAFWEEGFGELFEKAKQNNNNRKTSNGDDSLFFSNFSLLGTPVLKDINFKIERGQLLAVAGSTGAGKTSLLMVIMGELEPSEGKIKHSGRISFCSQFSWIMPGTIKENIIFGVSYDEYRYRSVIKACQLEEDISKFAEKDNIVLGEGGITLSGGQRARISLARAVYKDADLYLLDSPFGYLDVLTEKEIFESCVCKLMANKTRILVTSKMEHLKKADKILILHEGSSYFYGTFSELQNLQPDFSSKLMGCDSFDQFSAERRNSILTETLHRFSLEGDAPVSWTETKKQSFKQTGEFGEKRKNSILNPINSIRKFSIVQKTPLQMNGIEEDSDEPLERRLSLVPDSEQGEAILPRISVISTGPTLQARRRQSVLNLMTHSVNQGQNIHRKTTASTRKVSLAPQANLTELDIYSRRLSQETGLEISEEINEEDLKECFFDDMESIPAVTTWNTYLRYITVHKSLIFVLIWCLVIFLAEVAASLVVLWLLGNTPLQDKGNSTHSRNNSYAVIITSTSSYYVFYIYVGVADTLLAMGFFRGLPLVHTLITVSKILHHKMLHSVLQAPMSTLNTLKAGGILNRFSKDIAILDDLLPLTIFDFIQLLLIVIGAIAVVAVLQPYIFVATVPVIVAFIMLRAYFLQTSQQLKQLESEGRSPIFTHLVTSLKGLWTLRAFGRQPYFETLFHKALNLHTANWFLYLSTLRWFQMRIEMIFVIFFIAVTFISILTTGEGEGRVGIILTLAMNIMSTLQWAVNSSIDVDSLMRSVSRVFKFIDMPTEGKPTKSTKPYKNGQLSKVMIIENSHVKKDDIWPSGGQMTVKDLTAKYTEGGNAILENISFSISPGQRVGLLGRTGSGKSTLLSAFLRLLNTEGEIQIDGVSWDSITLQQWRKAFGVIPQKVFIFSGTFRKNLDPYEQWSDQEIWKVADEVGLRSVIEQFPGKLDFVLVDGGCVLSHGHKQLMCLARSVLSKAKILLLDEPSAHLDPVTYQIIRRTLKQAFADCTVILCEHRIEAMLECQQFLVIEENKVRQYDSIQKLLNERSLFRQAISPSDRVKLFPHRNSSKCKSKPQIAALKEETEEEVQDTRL
Text: Ussing chamber electrophysiology was used to confirm re-differentiation and polarization as per: Unwalla et al., Am. J. Respir. Cell. Mol. Biol. 2015, 52 (1), 65-74; and Chinnapaiyan et al., Sci Rep. 2018, 8(1), 7984. CFTR is located at the apical side (mucosal) of the airway epithelium. Briefly, NHBE cultures were re-differentiated at the air-liquid interface. Following re-differentiation for 21 days, the snap wells were removed from supports and mounted in Ussing chambers. The short circuit current was measured and allowed to stabilize followed by addition of amiloride (10 μM) added apically to eliminate epithelial sodium channel (ENaC) influences. CFTR activation was affected by addition of albuterol (10 μM) and change in short circuit current (ΔISC) was determined. CFTR specificity was confirmed by addition of CFTR inhibitor CFTRinh172 (20 μM) and the decrease in ΔISC was recorded.

[1] = cited from earlier work

In the case of O=C(O)c1ccc(/C=C2\SC(=S)N(c3cccc(C(F)(F)F)c3)C2=O)cc1 [CFIRinh172], the “short circuit current after CFTR inhibitor” value (CFTR; 20 μM after albuterol) is reported as “decreased current”.

In the case of N=C(N)N [Guanidine], the “pKa value of protonated counterpart” value [1] is listed as 12.48.

For CC(C)(C)NCC(O)c1ccc(O)c(CO)c1 (stereo not drawn) [albuterol], the “short circuit current on CFTR activation” value (CFTR; albuterol 10 μM after amiloride) was “sharp current increase occurs immediately”.
